# How the values were obtained:
# Assay type in all cases: cell-based
# E. coli BL21 = test: MIC against Gram-negative bacteria: E. coli BL21
# Description: (§1) 1. Gram-negative bacteria, such as E. coli BL21, Pseudomonas aeruginosa, Klebsiella pneumonia, Enterobacter cloacae, Aeromonas hydrophila, Citrobacter diversus, Moraxella catarrhalis, Proteus mirabilis, Proteus vulgaris, Serratia marcescens, etc were streaked on solid LB medium and cultured respectively. Then, typical clones were picked, inoculated into common liquid LB medium respectively, and cultured at 37° C. with shaking at 185 rpm until the McFarland specific turbidity was 0.5. The bacterial culture of each of Gram-negative bacteria was centrifuged at 4000×g for 3 min, the supernatant was discarded, and the thalli were resuspended with fresh LB medium.
# (§2) 2. The above-mentioned bacterial suspensions were diluted and inoculated into 96-well plates with the final concentration of the bacterial suspension being 5×10^5 CFU/mL per well.
# (§3) 3. Each of the purified human-originated EGF domain proteins (PRT1 to PRT1498 in Table 1) was added to each of the above wells and subjected to two-fold serial dilution in concentration. Three parallel wells were set up for each concentration in the gradient.
# (§4) 4. The above-mentioned 96-well plates were placed and cultured at 37° C. in shaking incubator shaking at 175 rpm. […] The minimal inhibitory concentration MIC is defined as the lowest concentration of the recombinant protein at which there is no growth of the bacteria.
# Pseudomonas aeruginosa = test: MIC against Gram-negative bacteria: Pseudomonas aeruginosa
# Description: as §1, §2, §3, §4
# Citrobacter diversus = test: MIC against Gram-negative bacteria: Citrobacter diversus
# Description: as §1, §2, §3, §4
# E. coli DH5α = test: Antibacterial activity: MIC and growth curve against E. coli DH5α in 96-well plate; details: minimal inhibitory concentration against E. coli DH5α; 96-well plate, 5×10^5 CFU/mL, 37° C., judged after 8 h
# Description: 1. E. coli DH5α was exemplified. E. coli DH5α was streaked and cultured on LB solid medium. Then, a typical clone was picked and inoculated into common LB liquid medium, cultured at 37° C. with shaking at 185 rpm until the logarithmic growth phase was reached (OD600 of about 0.5). The bacterial culture was centrifuged at 4000×g for 3 min, the supernatant was discarded, and the thalli were resuspended with fresh LB medium.
# 2. The above-mentioned bacterial suspension was diluted and inoculated into a 96-well plate with the total volume of 100 μL per well and a bacterial count of 5×10^5 CFU/mL.
# 3. The recombinant protein hF VII-EGF1 was added to the above-mentioned wells with the final protein concentration in the well of the highest protein concentration being 50 μg/mL. Basing on this final concentration, a two-fold serial dilution was performed till a protein concentration gradient consisting of 50, 25, and 12.5 μg/mL was set up. Three parallel wells were set up for each concentration in the gradient.
# as §4, with “plate was” for “plates were”, “rpm. Samples were taken every 30 min, the absorbance values were determined at 600 nm wavelength under a ultra violet spectrophotometer, and an inhibition curve was plotted.” for “rpm.”
# According to the experimental procedures in Example 14, the minimal inhibitory concentrations (MIC, μg/mL) of the other human-originated EGF domain proteins (PRT2 to PRT1498 in Table 1) for E. coli DH5α were determined.
# Moraxella catarrhalis = test: MIC against Gram-negative bacteria: Moraxella catarrhalis
# Description: as §1, §2, §3, §4
# Proteus vulgaris = test: MIC against Gram-negative bacteria: Proteus vulgaris
# Description: as §1, §2, §3, §4
# Proteus mirabilis = test: MIC against Gram-negative bacteria: Proteus mirabilis
# Description: as §1, §2, §3, §4
# Serratia marcescens = test: MIC against Gram-negative bacteria: Serratia marcescens
# Description: as §1, §2, §3, §4
# Enterobacter cloacae = test: MIC against Gram-negative bacteria: Enterobacter cloacae
# Description: as §1, §2, §3, §4
# Aeromonas hydrophila = test: MIC against Gram-negative bacteria: Aeromonas hydrophila
# Description: as §1, §2, §3, §4
# Klebsiella pneumonia = test: MIC against Gram-negative bacteria: Klebsiella pneumonia
# Description: as §1, §2, §3, §4
# [1] = 96-well plate, 5×10^5 CFU/mL, 37° C., 10 h
# [2] = E. coli BL21, 10 h cultivation at 37° C., 5×10^5 CFU/mL
# [3] = P. aeruginosa, 10 h cultivation at 37° C., 5×10^5 CFU/mL
# [4] = C. diversus, 10 h cultivation at 37° C., 5×10^5 CFU/mL
# [5] = M. catarrhalis, 10 h cultivation at 37° C., 5×10^5 CFU/mL
# [6] = P. vulgaris, 10 h cultivation at 37° C., 5×10^5 CFU/mL
# [7] = P. mirabilis, 10 h cultivation at 37° C., 5×10^5 CFU/mL
# [8] = S. marcescens, 10 h cultivation at 37° C., 5×10^5 CFU/mL
# [9] = E. cloacae, 10 h cultivation at 37° C., 5×10^5 CFU/mL
# [10] = A. hydrophila, 10 h cultivation at 37° C., 5×10^5 CFU/mL
# [11] = K. pneumonia, 10 h cultivation at 37° C., 5×10^5 CFU/mL
# [12] = 10 h cultivation at 37° C., 5×10^5 CFU/mL, two-fold serial dilution
substance,measurement,setting,value
PRT36 (PVRDCSKDNGGCSKNFRCISDRKLDSTGCVCPSGLSPMKDSSGCY; listed as Homo sapiens),MIC (μg/mL) E. coli BL21,"E. coli BL21; E. coli BL21, 96-well plate, 5×10^5 CFU/mL, 37° C., 10 h",25 µg/mL
same,MIC (μg/mL) P. aeruginosa,"Pseudomonas aeruginosa; Pseudomonas aeruginosa, 96-well plate, 5×10^5 CFU/mL, 37° C., 10 h",12.5 µg/mL
same,MIC (μg/mL) C. diversus,"Citrobacter diversus; Citrobacter diversus, 96-well plate, 5×10^5 CFU/mL, 37° C., 10 h",50 µg/mL
same,MIC,E. coli DH5α,12.5 µg/mL
same,MIC (μg/mL) M. catarrhalis,"Moraxella catarrhalis; Moraxella catarrhalis, 96-well plate, 5×10^5 CFU/mL, 37° C., 10 h",25 µg/mL
same,MIC (μg/mL) P. vulgaris,"Proteus vulgaris; Proteus vulgaris, 96-well plate, 5×10^5 CFU/mL, 37° C., 10 h",12.5 µg/mL
same,MIC (μg/mL) P. mirabilis,"Proteus mirabilis; Proteus mirabilis, 96-well plate, 5×10^5 CFU/mL, 37° C., 10 h",25 µg/mL
same,MIC (μg/mL) S. marcescens,"Serratia marcescens; Serratia marcescens, 96-well plate, 5×10^5 CFU/mL, 37° C., 10 h",25 µg/mL
same,MIC (μg/mL) E. cloacae,"Enterobacter cloacae; Enterobacter cloacae, 96-well plate, 5×10^5 CFU/mL, 37° C., 10 h",25 µg/mL
same,MIC (μg/mL) A. hydrophila,"Aeromonas hydrophila; Aeromonas hydrophila, 96-well plate, 5×10^5 CFU/mL, 37° C., 10 h",25 µg/mL
same,MIC (μg/mL) K. pneumonia,"Klebsiella pneumonia; Klebsiella pneumonia, 96-well plate, 5×10^5 CFU/mL, 37° C., 10 h",12.5 µg/mL
PRT515 (CHCDPIGSLNEVCVKDEKHARRGLAPGSCHCKTGFGGVSCDRCARGYTGYPDCKA; listed as Homo sapiens),MIC against E. coli BL21,E. coli BL21; [1],12.5 µg/mL
same,MIC against P. aeruginosa,Pseudomonas aeruginosa; [1],25 µg/mL
same,MIC against C. diversus,Citrobacter diversus; [1],25 µg/mL
same,MIC,E. coli DH5α,25 µg/mL
same,MIC against M. catarrhalis,Moraxella catarrhalis; [1],100 µg/mL
same,MIC against P. vulgaris,Proteus vulgaris; [1],12.5 µg/mL
same,MIC against P. mirabilis,Proteus mirabilis; [1],50 µg/mL
same,MIC against S. marcescens,Serratia marcescens; [1],50 µg/mL
same,MIC against E. cloacae,Enterobacter cloacae; [1],25 µg/mL
same,MIC against A. hydrophila,Aeromonas hydrophila; [1],50 µg/mL
same,MIC against K. pneumonia,Klebsiella pneumonia; [1],12.5 µg/mL
PRT900 (VLAPCAPSPCRNGGECRQSEDYESFSCVCPTGWQGQTCE; listed as Homo sapiens),MIC,"E. coli BL21; E. coli BL21, 10 h cultivation at 37° C.",25 µg/mL
same,MIC,"Pseudomonas aeruginosa; P. aeruginosa, 10 h cultivation at 37° C.",12.5 µg/mL
same,MIC,"Citrobacter diversus; C. diversus, 10 h cultivation at 37° C.",12.5 µg/mL
same,MIC,E. coli DH5α,12.5 µg/mL
same,MIC,"Moraxella catarrhalis; M. catarrhalis, 10 h cultivation at 37° C.",25 µg/mL
same,MIC,"Proteus vulgaris; P. vulgaris, 10 h cultivation at 37° C.",25 µg/mL
same,MIC,"Proteus mirabilis; P. mirabilis, 10 h cultivation at 37° C.",12.5 µg/mL
same,MIC,"Serratia marcescens; S. marcescens, 10 h cultivation at 37° C.",50 µg/mL
same,MIC,"Enterobacter cloacae; E. cloacae, 10 h cultivation at 37° C.",12.5 µg/mL
same,MIC,"Aeromonas hydrophila; A. hydrophila, 10 h cultivation at 37° C.",12.5 µg/mL
same,MIC,"Klebsiella pneumonia; K. pneumonia, 10 h cultivation at 37° C.",12.5 µg/mL
PRT816 (WGPDCSHPCNCSAGHGSCDAISGLCLCEAGYVGPRCE; listed as Homo sapiens),MIC (μg/mL) E. coli BL21,E. coli BL21; [2],50 µg/mL
same,MIC (μg/mL) P. aeruginosa,Pseudomonas aeruginosa; [3],100 µg/mL
same,MIC (μg/mL) C. diversus,Citrobacter diversus; [4],25 µg/mL
same,MIC,E. coli DH5α,25 µg/mL
same,MIC (μg/mL) M. catarrhalis,Moraxella catarrhalis; [5],50 µg/mL
same,MIC (μg/mL) P. vulgaris,Proteus vulgaris; [6],25 µg/mL
same,MIC (μg/mL) P. mirabilis,Proteus mirabilis; [7],25 µg/mL
same,MIC (μg/mL) S. marcescens,Serratia marcescens; [8],12.5 µg/mL
same,MIC (μg/mL) E. cloacae,Enterobacter cloacae; [9],25 µg/mL
same,MIC (μg/mL) A. hydrophila,Aeromonas hydrophila; [10],12.5 µg/mL
same,MIC (μg/mL) K. pneumonia,Klebsiella pneumonia; [11],50 µg/mL
PRT1063 (ELSPCRINNGGCQDLCLLTHQGHVNCSCRGGRILQDDLTCR; listed as Homo sapiens),MIC E. coli BL21,E. coli BL21; [12],25 µg/mL
same,MIC P. aeruginosa,Pseudomonas aeruginosa; [12],50 µg/mL
same,MIC C. diversus,Citrobacter diversus; [12],12.5 µg/mL
same,MIC,E. coli DH5α,12.5 µg/mL
same,MIC M. catarrhalis,Moraxella catarrhalis; [12],50 µg/mL
same,MIC P. vulgaris,Proteus vulgaris; [12],25 µg/mL
same,MIC P. mirabilis,Proteus mirabilis; [12],25 µg/mL
same,MIC S. marcescens,Serratia marcescens; [12],12.5 µg/mL
same,MIC E. cloacae,Enterobacter cloacae; [12],12.5 µg/mL
same,MIC A. hydrophila,Aeromonas hydrophila; [12],50 µg/mL
same,MIC K. pneumonia,Klebsiella pneumonia; [12],25 µg/mL
PRT843 (CQCNGHGDPRRGHCDNLSGLCFCQDHTEGAHCQLCSPGYYGDPRAGGSCFR; listed as Homo sapiens),MIC (μg/mL) E. coli BL21,E. coli BL21; [2],12.5 µg/mL
same,MIC (μg/mL) P. aeruginosa,Pseudomonas aeruginosa; [3],12.5 µg/mL
same,MIC (μg/mL) C. diversus,Citrobacter diversus; [4],25 µg/mL
same,MIC,E. coli DH5α,25 µg/mL
same,MIC (μg/mL) M. catarrhalis,Moraxella catarrhalis; [5],12.5 µg/mL
same,MIC (μg/mL) P. vulgaris,Proteus vulgaris; [6],25 µg/mL
same,MIC (μg/mL) P. mirabilis,Proteus mirabilis; [7],25 µg/mL
same,MIC (μg/mL) S. marcescens,Serratia marcescens; [8],50 µg/mL
same,MIC (μg/mL) E. cloacae,Enterobacter cloacae; [9],25 µg/mL
same,MIC (μg/mL) A. hydrophila,Aeromonas hydrophila; [10],50 µg/mL
same,MIC (μg/mL) K. pneumonia,Klebsiella pneumonia; [11],12.5 µg/mL

# From patent US9833497B2, “Human originated EGF domain proteins and use of the same” (CHENGDU SOURCEBIO LIMITED-LIABILITY COMPANY, priority 2013, dated 2017)
